The values that follow come from patent US20260317312A1, “ISOXAZOLIDINES AS RIPK1 INHIBITORS AND USE THEREOF” (GENZYME CORPORATION, priority 2023, published 2026).

In assay [1] the target is T1, hRIPK1 (aa 1-375) fusion protein (Homo sapiens, UniProt Q13546).
T1 construct: hRIPK1 (aa 1-375) fusion protein
T1 sequence (Q13546 1-375): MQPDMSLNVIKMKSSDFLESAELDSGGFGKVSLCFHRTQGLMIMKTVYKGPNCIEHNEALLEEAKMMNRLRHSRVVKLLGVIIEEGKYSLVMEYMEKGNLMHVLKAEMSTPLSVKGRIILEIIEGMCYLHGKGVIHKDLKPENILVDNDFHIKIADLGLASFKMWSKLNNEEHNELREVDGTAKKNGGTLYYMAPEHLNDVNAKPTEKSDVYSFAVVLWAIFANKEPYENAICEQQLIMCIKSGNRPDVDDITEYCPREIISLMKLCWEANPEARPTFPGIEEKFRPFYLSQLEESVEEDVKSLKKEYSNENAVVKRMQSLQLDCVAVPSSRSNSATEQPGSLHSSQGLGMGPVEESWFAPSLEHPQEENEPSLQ
The assay can be described thus: Receptor-Interacting Protein Kinase 1 inhibition, ADP Glo assay (conversion of ATP to ADP due to autophosphorylation). Format: biochemical. The following applies: ATP 50 μM, 30 min preincubation, 240 min incubation, room temperature, DMSO 1%. Here is the method:
The catalytic activity of RIPK1 was measured by monitoring the conversion of Adenosine triphosphate (ATP) to Adenosine diphosphate (ADP) due to autophosphorylation using an ADP-Glo kinase kit (Promega, catalog no. V9104).
In detail, 2 μl recombinantly produced hRIPK1 (aa 1-375) fusion protein (end concentration 3.6 μg/ml) and 2 μl compound (end concentration 33300-1.69 nM; DMSO end concentration 1%) were incubated for 30 minutes at room temperature and then 2 μl ATP (ADP Glo kit, end concentration 50 μM) were added. After another 240 minutes incubation at room temperature, 5 μl Promega ADP-Glo reagent I was added to quench the reaction and deplete unconsumed ATP. After an incubation period of 30 minutes, 10 μl Promega ADP-Glo detection reagent II was added resulting in conversion of ADP to ATP, which generates a light-reaction between luciferase and luciferin. Luminescence was quantified after 30 minutes with a Pherastar FS (BMG LABTECH, Ortenberg).
The adjustment was obtained by nonlinear regression using the Levenberg Marquardt algorithm.
(In ADP-Glo the light output rises with the ADP produced.)

Another assay relates to U937 cells. The assay can be described thus: Cellular assay in U937 cells to measure activity of RIPK1-inhibitors on cell death (necroptosis). The conditions noted are these: Homo sapiens, U-937, TNFα/zVAD.fmk induced cell death (necroptosis), overnight (18 to 24 hrs), 37° C., MTS readout. The assay is classed as cell-based. The source says:
Upon TNF-Receptor I ligation, Ser/Thr kinase RIPK1 is recruited to a transient receptor complex I. Upon modification of RIPK1 which promotes activation of RIPK1, complex lib can form, that involves recruitment of RIPK3 and MLKL (mixed lineage-kinase domain-like protein) which then translocates from the cytosol to the plasma membrane to execute cell death (Cai, Z. et al, Nat. Cell Biol. (2014)16:55-65).
Cell death was quantified in 96 well plates by determination of the amount of live cell using a CellTiter 96 Aqueous reagent (Promega), a calorimetric method to measure the number of live cells by reducing tetrazolium compound [3-(4,5-dimethylthiazol-2-yl)-5-(3-carboxymethoxyphenyl)-2-(4-sulfophenyl)-2H-tetrazolium, inner salt; MTS] into formazan. Absorbance of formazan was read at 490 nm. The inhibitory activity of the test compound was quantified in a concentration response curve (CRC) experiment.
Compounds were obtained as 10 mM stock solutions and were diluted 1 to 10 volumes with DMSO to yield a 1 mM solution. From this solution 2 μl were diluted with 998 μl growth medium. 100 μl of 2 μM compound solution was further diluted sequentially with a dilution factor of 2.5 by adding 150 μl growth medium. A total of 10 concentrations were tested ranging from 10 μM to 0.26 nM or from 1 μM to 0.07 nM.
U937 cells were cultured in RPM11640 Glutamax and 10% heat inactivated FBS. 50 μl cell suspension containing 1×10^6 cells/ml supplemented with 50 μM zVAD.fmk (Benzyloxycarbonyl-Val-Ala-Asp (Ome) fluoromethylketone) and 100 ng/ml recombinant human TNFα were dispensed in each well of a 96-well plate. 50 μl of compound dilutions (described in Cellular assay in U937 cells) were added and the cell suspension incubated overnight (18 to 24 hrs) at 37° C., 5% CO2 in a humidified atmosphere (95% rH). High (no compound) and low control (no TNFα, zVAD.fmk) were tested with 7 replicates; all compound concentrations were tested in duplicates on each experimental plate.
CellTiter 96 Aqueous reagent was mixed (100 μl PMS (phenazine methosulfate) solution/2 ml MTS (3-(4,5-[…])-5-(3-carboxymethoxyphenyl)-2-(4-sulfophenyl)-2H-tetrazolium, inner salt) solution) and 20 μl were added per well. After 4 hrs incubation at 37° C. (5% CO2 95% rH) optical density was measured at 490 nm on a microplate reader (Tecan Infinite M1000).
The % inhibition is expressed as percentage of the maximal inhibition value obtained in the absence of TNFα/zVAD.fmc.

Regarding `O=C([C@H]1C[C@H](n2ccc3cc(F)ccc32)C1)N1OCC[C@H]1c1cc(F)cc(F)c1` [Compound 106, trans-[(3S)-3-(3,5-difluorophenyl)isoxazolidin-2-yl]-[3-(5-fluoroindol-1-yl)cyclobutyl]methanone], the IC50 (as a rule, the concentration at which inhibition is half-maximal) worked out at 77 nM in assay [1] and 353 nM with U937 cells.

On to `O=C([C@H]1C[C@H](n2cnc3cc(F)ccc32)C1)N1OCC[C@H]1c1cccc(F)c1` [Compound 84, trans-(3-(5-fluoro-1H-benzo[d]imidazol-1-yl)cyclobutyl)((S)-3-(3-fluorophenyl)isoxazolidin-2-yl)methanone], for which the IC50 in assay [1] came to 257 nM; in the assay with U937 cells it was 428 nM.

Take `N#Cc1cc(F)cc(OC[C@H]2CC[C@H](C(=O)N3OCC[C@H]3c3cncc(C#N)c3)CC2)c1` [Compound 83, trans-5-((S)-2-(4-((3-cyano-5-fluorophenoxy)methyl)cyclohexane-1-carbonyl)isoxazolidin-3-yl)nicotinonitrile]: the results for the IC50 (in assay [1]; in the assay with U937 cells) were 34 nM and 23 nM, respectively.

As for `NC(=O)c1cccc(OC[C@H]2CC[C@H](C(=O)N3OCC[C@H]3c3cnccn3)CC2)c1` [Compound 100, trans-3-[[4-[(3S)-3-pyrazin-2-ylisoxazolidine-2-carbonyl]cyclohexyl]methoxy]benzamide], the figures for the IC50 (in assay [1]; in the assay on U937 cells) were 42 nM and 139 nM, respectively.

As for `N#Cc1cc(F)cc(N[C@H]2C[C@@H](C(=O)N3OCC[C@H]3c3cc(F)cc(C#N)c3)C2)c1` [Compound 37, cis-3-((S)-2-(3-((3-cyano-5-fluorophenyl)amino)cyclobutane-1-carbonyl)isoxazolidin-3-yl)-5-fluorobenzonitrile], the IC50 in assay [1] came to 34 nM; in the assay on U937 cells it was 45 nM.

On to `N#Cc1cc(F)cc([C@@H]2CCON2C(=O)[C@H]2C[C@@H](n3cc4cc(F)ccc4n3)C2)c1` [Compound 109, cis-3-fluoro-5-[(3S)-2-[3-(5-fluoroindazol-2-yl)cyclobutanecarbonyl]isoxazolidin-3-yl]benzonitrile], for which the figures for the IC50 (in assay [1]; with U937 cells) were 55 nM and 745 nM, respectively.

Take `Cc1cc(C)n(-c2ccc(OC[C@H]3CC[C@H](C(=O)N4OCC[C@H]4c4cc(F)cc(F)c4)CC3)c(F)c2)n1` [Compound 62, trans-((S)-3-(3,5-difluorophenyl)isoxazolidin-2-yl)(4-((4-(3,5-dimethyl-1H-pyrazol-1-yl)-2-fluorophenoxy)methyl)cyclohexyl)methanone]: the IC50 was 28 nM in assay [1] and 34 nM in the assay on U937 cells.

Turning to `N#Cc1cncc([C@@H]2CCON2C(=O)[C@H]2CC[C@H](COc3ccc(C(N)=O)cn3)CC2)c1` [Compound 99, trans-6-[[4-[(3S)-3-(5-cyano-3-pyridyl)isoxazolidine-2-carbonyl]cyclohexyl]methoxy]pyridine-3-carboxamide], the concentration for half-maximal inhibition (IC50) in assay [1] came to 70 nM; with U937 cells, 209 nM.

Turning to `CN1CC(=O)N(c2ccc(Cl)c(OC[C@H]3CC[C@H](C(=O)N4OCC[C@H]4c4cc(F)cc(F)c4)CC3)c2)C1=O` [Compound 63, trans-3-(4-chloro-3-((4-((S)-3-(3,5-difluorophenyl)isoxazolidine-2-carbonyl)cyclohexyl)methoxy)phenyl)-1-methylimidazolidine-2,4-dione], the IC50 in assay [1] is 44 nM; in the assay on U937 cells it was 45 nM.

Consider `N#Cc1cncc([C@@H]2CCON2C(=O)[C@H]2CC[C@H](COc3ccc(F)c(C#N)c3)CC2)c1` [Compound 72, trans-5-((S)-2-(4-((3-cyano-4-fluorophenoxy)methyl)cyclohexane-1-carbonyl)isoxazolidin-3-yl)nicotinonitrile], for which the IC50 is 15 nM in assay [1] and 13 nM with U937 cells.

Consider `Cc1nnc(C)n1-c1ccc(OC[C@H]2CC[C@H](C(=O)N3OCC[C@H]3c3cc(F)cc(F)c3)CC2)c(F)c1` [Compound 67, trans-((S)-3-(3,5-difluorophenyl)isoxazolidin-2-yl)(4-((4-(3,5-dimethyl-4H-1,2,4-triazol-4-yl)-2-fluorophenoxy)methyl)cyclohexyl)methanone], for which the values for the IC50 (in assay [1]; in the assay with U937 cells) were 46 nM and 128 nM, respectively.

For the compound `N#Cc1ccc(OC[C@H]2CC[C@H](C(=O)N3OCC[C@H]3c3cnccn3)CC2)nc1` [Compound 103, trans-6-[[4-[(3S)-3-pyrazin-2-ylisoxazolidine-2-carbonyl]cyclohexyl]methoxy]pyridine-3-carbonitrile], the results for the IC50 (in assay [1]; in the assay on U937 cells) were 57 nM and 98 nM, respectively.

For the compound `N#Cc1ccnc(N[C@H]2C[C@@H](C(=O)N3OCC[C@H]3c3ccc(F)c(F)c3)C2)n1` [Compound 21, cis-2-((3-((S)-3-(3,4-difluorophenyl)isoxazolidine-2-carbonyl)cyclobutyl)amino)pyrimidine-4-carbonitrile], the values for the IC50 (in assay [1]; in the assay on U937 cells) were 29 nM and 212 nM, respectively.

In the case of `N#Cc1cc(NC[C@H]2CC[C@H](C(=O)N3OCC[C@H]3c3ccc(Cl)cc3)CC2)ncn1` [Compound 15, trans-6-(((4-((S)-3-(4-chlorophenyl)isoxazolidine-2-carbonyl)cyclohexyl)methyl)amino)pyrimidine-4-carbonitrile], the IC50 in assay [1] came out at 9 nM; in the assay with U937 cells it was 192 nM.

For the compound `NC(=O)c1cc(N[C@H]2CC[C@@H](C(=O)N3OCC[C@H]3c3ccc(Cl)cc3)CC2)ncn1` [Compound 13, cis-6-((4-((S)-3-(4-chlorophenyl)isoxazolidine-2-carbonyl)cyclohexyl)amino)pyrimidine-4-carboxamide], the half-inhibitory concentration (IC50) turned out to be 114 nM in assay [1] and 462 nM in the assay on U937 cells.

As to `N#Cc1cc(N[C@H]2C[C@@H](C(=O)N3OCC[C@H]3c3cccc(F)c3)C2)ncn1` [Compound 17, cis-6-((3-((S)-3-(3-fluorophenyl)isoxazolidine-2-carbonyl)cyclobutyl)amino)pyrimidine-4-carbonitrile], the values for the IC50 (in assay [1]; with U937 cells) were 56 nM and 194 nM, respectively.

Turning to `O=C([C@H]1C[C@@H](n2cnc3ccc(F)cc32)C1)N1OCC[C@H]1c1cc(F)cc(F)c1` [Compound 87, cis-((S)-3-(3,5-difluorophenyl)isoxazolidin-2-yl)(3-(6-fluoro-1H-benzo[d]imidazol-1-yl)cyclobutyl)methanone], the figures for the IC50 (in assay [1]; with U937 cells) were 89 nM and 551 nM, respectively.

Regarding `N#Cc1cc(F)cc(N[C@H]2C[C@@H](C(=O)N3OCC[C@H]3c3ccc(F)c(F)c3)C2)c1` [Compound 27, cis-3-((3-((S)-3-(3,4-difluorophenyl)isoxazolidine-2-carbonyl)cyclobutyl)amino)-5-fluorobenzonitrile], the results for the IC50 (in assay [1]; with U937 cells) were 49 nM and 170 nM, respectively.

For the compound `N#Cc1cc(OC[C@H]2CC[C@H](C(=O)N3OCC[C@H]3c3cc(F)cc(F)c3)CC2)ccc1F` [Compound 43, trans-5-((4-((S)-3-(3,5-difluorophenyl)isoxazolidine-2-carbonyl)cyclohexyl)methoxy)-2-fluorobenzonitrile], the values for the IC50 (in assay [1]; in the assay with U937 cells) were 11 nM and 2 nM, respectively.
